Laboratory results reported in patent publication US20250230193A1, “CYCLIC COMPOUND HAVING SELECTIVE KRAS INHIBITORY EFFECT ON HRAS AND NRAS” (CHUGAI SEIYAKU KABUSHIKI KAISHA, priority 2022, published 2025).

Assays:
[1] = biological target: GDP-bound NRAS wild-type protein (Homo sapiens, UniProt P01111); assay: Binding to NRAS by surface plasmon resonance (SPR), Single Cycle Kinetics; details: KD ratio NRAS/KRAS, class symbols
[2] = biological target: GDP-bound HRAS wild-type protein (Homo sapiens, UniProt P01112); assay: Binding to HRAS by surface plasmon resonance (SPR), Single Cycle Kinetics; details: KD ratio HRAS/KRAS, class symbols
Chain of GDP-bound HRAS wild-type protein (P01112 whole entry): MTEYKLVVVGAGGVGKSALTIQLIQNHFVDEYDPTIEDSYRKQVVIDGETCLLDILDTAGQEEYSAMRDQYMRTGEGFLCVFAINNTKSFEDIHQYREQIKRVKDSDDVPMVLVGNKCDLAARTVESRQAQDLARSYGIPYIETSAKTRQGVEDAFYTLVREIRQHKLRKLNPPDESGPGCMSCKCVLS

Chain of GDP-bound NRAS wild-type protein (P01111 whole entry): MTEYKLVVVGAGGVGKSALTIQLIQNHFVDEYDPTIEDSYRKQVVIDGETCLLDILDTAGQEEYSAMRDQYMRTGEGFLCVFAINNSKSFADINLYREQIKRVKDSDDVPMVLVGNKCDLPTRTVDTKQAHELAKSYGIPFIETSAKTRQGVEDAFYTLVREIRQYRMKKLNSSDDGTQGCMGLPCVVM

Structure (SMILES) | NRAS/KRAS (ratio of KD value with respect to GDP-bound NRAS wild-type protein to KD value with respect to KRAS) [1] | HRAS/KRAS (ratio of KD value with respect to GDP-bound HRAS wild-type protein to KD value with respect to KRAS) [2]
CCC[C@H]1C(=O)N[C@@H]([C@@H](C)CC)C(=O)N(C2CC2)CC(=O)N(C)[C@H]2C/C=C\CCN(C2=O)[C@@H](Cc2ccc(C(F)(F)F)cc2)C(=O)N(C)CC(=O)N[C@@H](CCc2cc(F)c(C(F)(F)F)c(F)c2)C(=O)N2C[C@H](OCC)C[C@H]2C(=O)NC2(CC(C)(C)C2)C(=O)N(C)[C@@H](CC(C)(C)C)C(=O)N(C)[C@H](C(=O)N(C)C)CC(=O)N1C [PP2742] | AA (a compound having 20 or more is denoted as AA) | A (a compound having 10 or more and less than 20 is denoted as A)
CCO[C@@H]1C[C@H]2C(=O)NC3(CC(C)(C)C3)C(=O)N(C)[C@@H](CC(C)(C)C)C(=O)N(C)[C@H](C(=O)N(C)C)CC(=O)N(C)[C@@H](COC)C(=O)N[C@@H]([C@@H](C)CC)C(=O)N(C3CC3)CC(=O)N(C)[C@H]3C/C=C\CCN(C3=O)[C@@H](Cc3ccc(C(F)(F)F)cc3)C(=O)N(C)CC(=O)N[C@@H](CCc3cc(F)c(C(F)(F)F)c(F)c3)C(=O)N2C1 [PP2744] | A (a compound having 10 or more and less than 20 is denoted as A) | A (a compound having 10 or more and less than 20 is denoted as A)
CCC[C@H]1C(=O)N[C@@H]([C@@H](C)CC)C(=O)N(C2CC2)CC(=O)N(C)[C@H]2C/C=C\CCN(C2=O)[C@@H](Cc2ccc(C(F)(F)F)cc2)C(=O)N(C)CC(=O)N[C@@H](CCc2ccc(C(F)(F)F)c(OC)c2)C(=O)N2C[C@H](OCC)C[C@H]2C(=O)NC2(CC(C)(C)C2)C(=O)N(C)[C@@H](CC(C)(C)C)C(=O)N(C)[C@H](C(=O)N(C)C)CC(=O)N1C [PP2746] | A (a compound having 10 or more and less than 20 is denoted as A) | A (a compound having 10 or more and less than 20 is denoted as A)
CCO[C@@H]1C[C@H]2C(=O)NC3(CC(C)(C)C3)C(=O)N(C)[C@@H](CC(C)(C)C)C(=O)N(C)[C@H](C(=O)N(C)C)CC(=O)N(C)[C@@H](COC)C(=O)N[C@@H]([C@@H](C)CC)C(=O)N(C3CC3)CC(=O)N(C)[C@H]3C/C=C\CCN(C3=O)[C@@H](Cc3ccc(C(F)(F)F)cc3)C(=O)N(C)CC(=O)N[C@@H](CCc3ccc(C(F)(F)F)c(OC)c3)C(=O)N2C1 [PP2748] | A (a compound having 10 or more and less than 20 is denoted as A) | A (a compound having 10 or more and less than 20 is denoted as A)
CCC[C@H]1C(=O)N[C@@H]([C@@H](C)CC)C(=O)N(C2CC2)CC(=O)N(C)[C@H]2C/C=C\CCN(C2=O)[C@@H](Cc2ccc(C(F)(F)F)cc2)C(=O)N(C)CC(=O)N[C@@H](CCc2ccc(Cl)c(Cl)c2)C(=O)N2C[C@H](OCC)C[C@H]2C(=O)NC2(CC(C)(C)C2)C(=O)N(C)[C@@H](CC(C)(C)C)C(=O)N(C)[C@H](C(=O)N(C)C)CC(=O)N1C [PP2749] | AA (a compound having 20 or more is denoted as AA) | A (a compound having 10 or more and less than 20 is denoted as A)
CCO[C@@H]1C[C@H]2C(=O)NC3(CC(C)(C)C3)C(=O)N(C)[C@@H](CC(C)(C)C)C(=O)N(C)[C@H](C(=O)N(C)C)CC(=O)N(C)[C@@H](COC)C(=O)N[C@@H]([C@@H](C)CC)C(=O)N(C3CC3)CC(=O)N(C)[C@H]3C/C=C\CCN(C3=O)[C@@H](Cc3ccc(C(F)(F)F)cc3)C(=O)N(C)CC(=O)N[C@@H](CCc3ccc(Cl)c(Cl)c3)C(=O)N2C1 [PP2750] | AA (a compound having 20 or more is denoted as AA) | A (a compound having 10 or more and less than 20 is denoted as A)
CCC[C@H]1C(=O)N[C@@H]([C@@H](C)CC)C(=O)N(C)CC(=O)N(C)[C@H]2C/C=C\CCN(C2=O)[C@@H](Cc2ccc(C)cc2)C(=O)N(C)CC(=O)N[C@@H](CCc2cc(F)c(C(F)(F)F)c(F)c2)C(=O)N2C[C@H](OCC)C[C@H]2C(=O)NC2(CC(C)(C)C2)C(=O)N(C)[C@@H](CC2CCC2)C(=O)N(C)[C@H](C(=O)N(C)C)CC(=O)N1C [PP2751] | A (a compound having 10 or more and less than 20 is denoted as A) | A (a compound having 10 or more and less than 20 is denoted as A)
CCCOC[C@H]1C(=O)N[C@@H]([C@@H](C)CC)C(=O)N(C)CC(=O)N(C)[C@H]2C/C=C\CCN(C2=O)[C@@H](Cc2ccc(C)cc2)C(=O)N(C)CC(=O)N[C@@H](CCc2cc(F)c(C(F)(F)F)c(F)c2)C(=O)N2C[C@H](OCC)C[C@H]2C(=O)NC2(CC(C)(C)C2)C(=O)N(C)[C@@H](CC2CCC2)C(=O)N(C)[C@H](C(=O)N(C)C)CC(=O)N1C [PP2752] | A (a compound having 10 or more and less than 20 is denoted as A) | A (a compound having 10 or more and less than 20 is denoted as A)
CCC[C@H]1C(=O)N[C@@H]([C@@H](C)CC)C(=O)N(C)CC(=O)N(C)[C@H]2C/C=C\CCN(C2=O)[C@@H](Cc2ccc(C)cc2)C(=O)N(C)CC(=O)N[C@@H](CCc2ccc(C(F)(F)F)c(OC)c2)C(=O)N2C[C@H](OCC)C[C@H]2C(=O)NC2(CC(C)(C)C2)C(=O)N(C)[C@@H](CC2CCC2)C(=O)N(C)[C@H](C(=O)N(C)C)CC(=O)N1C [PP2753] | A (a compound having 10 or more and less than 20 is denoted as A) | B (a compound having 3 or more and less than 10 is denoted as B)
CCC[C@H]1C(=O)N[C@@H]([C@@H](C)CC)C(=O)N(C)CC(=O)N(C)[C@H]2C/C=C\CCN(C2=O)[C@@H](Cc2ccc(C)cc2)C(=O)N(C)CC(=O)N[C@@H](CCc2ccc(Cl)c(Cl)c2)C(=O)N2C[C@H](OCC)C[C@H]2C(=O)NC2(CC(C)(C)C2)C(=O)N(C)[C@@H](CC2CCC2)C(=O)N(C)[C@H](C(=O)N(C)C)CC(=O)N1C [PP2755] | A (a compound having 10 or more and less than 20 is denoted as A) | A (a compound having 10 or more and less than 20 is denoted as A)
CCC[C@H]1C(=O)N[C@@H]([C@@H](C)CC)C(=O)N(C2CC2)CC(=O)N(C)[C@H]2C/C=C\CCN(C2=O)[C@@H](Cc2ccc(C)cc2)C(=O)N(C)CC(=O)N[C@@H](CCc2ccc(Cl)c(Cl)c2)C(=O)N2C[C@H](OCC)C[C@H]2C(=O)NC2(CC(C)(C)C2)C(=O)N(C)[C@@H](CC2CCC2)C(=O)N(C)[C@H](C(=O)N(C)C)CC(=O)N1C [PP2761] | A (a compound having 10 or more and less than 20 is denoted as A) | A (a compound having 10 or more and less than 20 is denoted as A)
